The assay concerns HIV-1IIIB. Kind of assay: Association of compound with concentrated virus (LC/MS/MS of viral pellets). The class given is binding. The conditions noted are these: 500 nM, 2 hours. How it is done:
To examine the potential of CMX157 to associate directly with virus, concentrated HIV-1IIIB (approximately 9.7×10^10 virus particles) is treated with 500 nM CMX157 or TFV for 2 hours. Following incubation, virus is pelleted to remove unbound compound, lysed with 70% ice cold methanol and centrifuged. Supernatants are analyzed in triplicate using LC/MS/MS (liquid chromatography/mass spectrometry). TFV, TFV mono- and diphosphate are separated by gradient, reverse phase, ion-paring chromatography and detected by positive ion electrospray. The levels of CMX157 associated with the viral pellets (≈37,000 molecules/virion) are much higher than the levels of TFV associated with viral pellets (≈100 molecules/virion).

Structures are written as SMILES.

The values that follow come from patent US8993542B2, “Methods of treating viral infections” (priority 2008, dated 2015).

Take `C[C@H](Cn1cnc2c(N)ncnc21)OCP(=O)(O)O` [TFV, (R)-9-(2-phosphonylmethoxypropyl)adenine]: the “levels associated with the viral pellets” value was “≈ 100 molecules/virion”.
